Consider three substances from patent publication US10260039B2, “Microgels and microtissues for use in tissue engineering” (Massachusetts Institute of Technology, priority 2011, dated 2019).

For assay [1], the system named is 3D engineered liver tissues. Put plainly: hepatic function of 3D engineered liver tissues (albumin secretion). It is filed as cell-based, human. From the text:
FIG. 10. A) Albumin secretion as a measure of hepatic phenotype, elevated in the presence of fibroblasts and RGDS peptide. B) Luminex bead measurements of human drug metabolism enzyme genes, showing upregulation of the genes in 3D as opposed to 2D, in various phases of drug metabolism.
More recently, it has been possible to extend the function of 3D engineered liver tissues even further, by addition of a micropatterning step pre-encapsulation (FIG. 11).

Another assay relates to encapsulated tumor cells. Nature of the assay: 3D proliferation of encapsulated tumor cells in microtissues (large-particle flow analyzer). It is filed as cell-based. From the text: FIG. 16. Microtissue proliferation modulated by (a) incorporated extracellular matrix molecules, or (b) culture in soluble growth factors.
FIG. 17. Differences in tumor cell responses to small molecules in 2D vs. 3D culture. (a) Comparison of proliferation rates on 2D-microplate and 3D-microtissue formats relative to untreated controls. (b) Growth curve over time of tumor cells in 2D measured by microplate fluorescence, and (c) Growth curve over time of tumor cells in 3D measured by gel dissolution and DNA quantitation.
The in vitro 3D tumor model platform combines the split-injection encapsulation chip described in detail above with a large-particle flow analyzer and sorter (COPAS Biosort by Union Biometrica). Cells are first encapsulated within microtissues (˜5000/min) that can contain tumor cells, stromal cells, and various entrapped ECM. These microtissues are then further enriched using the flow sorter that measures the fluorescence intensity each microtissue, correlating with the density of zs-green tumor cells in each microtissue. (FIG. 15a), and can sort the microtissues (˜25 selected/min) into low, medium, and high homotypic cell density bins (FIG. 15b). […] Selected populations of microtissues are then exposed to stimuli in culture such as growth factors and inhibitors, and their proliferation over days is detected on a population level (FIG. 15b).

Consider “RGDS: adhesive peptide (SEQ ID NO: 1), acrylate-PEG-RGDS incorporated in hydrogel; ligates α5β1 integrin (not fully specified; acrylate-PEG conjugate in hydrogel)”, for which, in assay [1] (3D culture, ligation of α5β1 integrin via RGDS (FIG. 10A)), the hepatic functions result is given as “further improved hepatic functions”. Further, the “albumin secretion as a measure of hepatic phenotype” value in assay [1] (in the presence of fibroblasts and RGDS peptide (FIG. 10A)) was “elevated”.
With TGF-β, in the assay on encapsulated tumor cells (exogenous growth factor in culture, 3D microtissues (FIG. 16)), the “slowing of 3D proliferation of encapsulated tumor cells” value is given as around 80%.
Consider fibronectin, for which, in the assay on encapsulated tumor cells (extracellular matrix protein incorporated in microtissues (FIG. 16)), the “3D proliferation (growth) of encapsulated tumor cells” value is “promoted growth”.
